Measured values: patent US20110245288A1 (priority 2010, published 2011)

Legend:
[1] = human
[2] = human; remark: listed apart in the source

With `CO[C@]12CC[C@@]3(C[C@@H]1[C@](C)(O)C(C)(C)C)[C@H]1Cc4ccc(O)c5c4[C@@]3(CCN1CC1CC1)[C@H]2O5` [BUP, buprenorphine, reference compound] the Cumulative permeation [1] was 6.32 ± 2.16 nmol, the Flux [1] was 0.44 ± 0.14 nmol/cm^2/h and the Lag time [1] was 9.2 ± 2.0 h. For the same compound, the “Skin Disposition” value [1] was 0.62 ± 0.34 µmol/g.
For `CCOCCOCCOC(=O)Oc1ccc2c3c1O[C@H]1[C@@]4(OC)CC[C@@]5(C[C@@H]4[C@](C)(O)C(C)(C)C)[C@@H](C2)N(CC2CC2)CC[C@]315` [Formula I, Buprenorphine 3,6-dioxaoctyl carbonate], the “Plasma hydrolysis (k)” value [2] was -0.113 h⁻¹, the Cumulative permeation [1] was 17.5 ± 4.0 nmol and the Flux [1] was 1.24 ± 0.23 nmol/cm^2/h. The Lag time [1] was 7.7 ± 1.7 h, the “Skin Disposition” value [1] was 1.0 ± 0.4 µmol/g and the flux enhancement [1] was “*Formula I (3) (key: *Indicates a flux enhancement greater than 2.)”. The “fold increase in cumulative permeation as compared to BUP” value [1] was at least 2.75 fold.
For `CCOCCOCCOCCOCCOC(=O)Oc1ccc2c3c1O[C@H]1[C@@]4(OC)CC[C@@]5(C[C@@H]4[C@](C)(O)C(C)(C)C)[C@@H](C2)N(CC2CC2)CC[C@]315` [Formula II, Buprenorphine 3,6,9,12-tetraoxatetradecanyl carbonate], the “Plasma hydrolysis (k)” value [2] was -1.12 h⁻¹, the Cumulative permeation [1] was 4.5 ± 1.9 nmol and the Flux [1] was 0.31 ± 0.26 nmol/cm^2/h. The Lag time [1] was 7.4 ± 4.7 h and the “Skin Disposition” value [1] was 4.5 ± 1.9 µmol/g.
With `CCOCCOCCOCCOC(=O)Oc1ccc2c3c1O[C@H]1[C@@]4(OC)CC[C@@]5(C[C@@H]4[C@](C)(O)C(C)(C)C)[C@@H](C2)N(CC2CC2)CC[C@]315` [Formula III, Buprenorphine 3,6,9-trioxaundecyl carbonate] the “Plasma hydrolysis (k)” value [2] was -0.37 h⁻¹, the Cumulative permeation [1] was 23.9 ± 6.7 nmol and the Flux [1] was 1.74 ± 0.45 nmol/cm^2/h. For the same compound, the Lag time [1] was 8.7 ± 0.6 h, the “Skin Disposition” value [1] was 13.89 ± 12.21 µmol/g and the flux enhancement [1] was “*FormuIa III (4) (key: *Indicates a flux enhancement greater than 2.)”. For the same compound, the “fold increase in cumulative permeation as compared to BUP” value [1] was at least 2.75 fold.
